Legend:
LPA2 [1] = target: T1, LPA2 (Homo sapiens, UniProt Q9HBW0); assay: Ca2+ mobilization assay, antagonist activity at LPA2; type: cell-based; parameters: Emax: dose or concentration left out as unconfirmed; conditions: for IC50: antagonism of 10 μM LPA, mean ± s.e.m.
T1 construct: expressed in transfected cells
Protocol: (§1) Cells stably expressing the corresponding LPA1–3 receptor were grown as described previously.[18] Changes in intracellular calcium levels were measured by using the fluorescent calcium sensitive dye Fluo-4 NW (Invitrogen). RH7777 cells or B103 cells were plated on poly-D-lysine or collagen coated, respectively, black-wall clear-bottom 96-well plates (Corning) at a density of 50 000 cells/well and cultured overnight. The culture medium was then replaced with 100 μL of Fluo-4 NW dye loading solution containing 2.5 μM of probenecid and incubated for 30 min at 37 °C followed by an additional 30 min at rt. […] Fluorescence changes were registered in a FluoStar Optima instrument (BMG Labtech) at 525 nm using an excitation wavelength of 494 nm. […] The data presented are from two to four independent experiments carried out in triplicate or quadruplicate. Dose–response curves were generated and IC50 values calculated by nonlinear regression analysis using Prism software version 5 (GraphPad Software Inc., San Diego, CA, USA).
Figure S2. Dose response curves for compounds 13, 44, 53, 54, and 55. B103 cells stably expressing LPA2 receptor were incubated with different concentrations of the compound under study and […]
Curves were generated with PRISM software version 5 (GraphPad Software Inc, San Diego, CA, USA) using nonlinear regression analysis. Each data point corresponds to the mean±SEM of two to four independent experiments carried out in triplicate or quadruplicate.

LPA3 [2] = target: T2, LPA3 (Homo sapiens, UniProt Q9UBY5); assay: cell-based; conditions: for Emax (%) LPA3: maximum blockade of activation induced by 10 μM LPA (18:1) at 10 μM compound, N.E. = no effect at 10 μM
T2 sequence (Q9UBY5 1-353): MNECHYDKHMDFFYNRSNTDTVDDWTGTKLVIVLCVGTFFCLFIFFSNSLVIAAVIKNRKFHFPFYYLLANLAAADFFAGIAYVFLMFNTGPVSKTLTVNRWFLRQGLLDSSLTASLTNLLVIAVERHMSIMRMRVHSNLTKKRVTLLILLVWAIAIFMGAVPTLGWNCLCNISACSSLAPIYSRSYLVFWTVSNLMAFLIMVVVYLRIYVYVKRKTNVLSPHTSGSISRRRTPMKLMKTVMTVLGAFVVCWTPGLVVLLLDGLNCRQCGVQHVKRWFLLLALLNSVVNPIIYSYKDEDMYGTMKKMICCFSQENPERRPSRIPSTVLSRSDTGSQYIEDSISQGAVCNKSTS
Protocol: as §1

LPA1 [3] = target: T3, LPA1 (Homo sapiens, UniProt Q92633); assay: cell-based; conditions: maximum blockade of activation induced by 10 μM LPA (18:1) at 10 μM compound; N.E. = no effect at 10 μM
Protocol: as §1

LPA2 [4] = target: T1, LPA2; assay: Ca2+ mobilization assay, agonist activity at LPA2; type: cell-based; conditions: 10 μM compound
Protocol: The agonist activity at LPA2 receptors was determined at 10 μM concentration for all final compounds as previously described.[18]
Figure S1. Representative snapshots showing the lack of significant agonist activity of selected compounds. (A) 1; (B) 13; (C) 54; and (D) Ki16425. (E) Graphs show the agonist activity induced […]
stably expressing LPA2 receptor were plated on collagen-coated black-wall clear-bottom 96-well plates (Corning) at a density of 50000 cells/well and cultured overnight. The culture medium was then replaced with Fluo-4 NW dye loading solution containing 2.5 µM of probenecid and incubated […]
for 30 minutes at 37 °C followed by an additional 30 minutes at rt. Fluorescence changes were registered in a FluoStar Optima instrument (BMG Labtech) at 525 nm using an excitation wavelength of 494 nm. Each well was monitored for 240 s. 20 µL of the test compound from a 6x stock solution in assay buffer were added after 120 s of starting the measurement. Ca2+ transient increase was quantified by calculating the difference between maximum and baseline values for each […]
Graphs shown are representative of two to three independent experiments.

LPA1 [5] = target: T3, LPA1; parameters: expressed in transfected cells; conditions: cited from earlier work
LPA3 [6] = target: T2, LPA3; parameters: expressed in transfected cells; conditions: cited from earlier work

T3 sequence (Q92633 whole entry, species assumed): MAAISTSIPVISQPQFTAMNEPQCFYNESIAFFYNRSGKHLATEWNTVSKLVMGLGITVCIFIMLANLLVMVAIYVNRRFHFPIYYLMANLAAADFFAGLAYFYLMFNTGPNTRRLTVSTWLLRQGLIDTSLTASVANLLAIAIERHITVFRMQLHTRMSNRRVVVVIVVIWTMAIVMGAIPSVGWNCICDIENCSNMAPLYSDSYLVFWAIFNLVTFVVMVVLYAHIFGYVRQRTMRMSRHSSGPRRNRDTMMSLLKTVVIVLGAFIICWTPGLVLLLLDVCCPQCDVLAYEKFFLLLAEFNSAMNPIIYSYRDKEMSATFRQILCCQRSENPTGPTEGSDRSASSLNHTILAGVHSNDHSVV
T1 sequence (Q9HBW0 whole entry, species assumed): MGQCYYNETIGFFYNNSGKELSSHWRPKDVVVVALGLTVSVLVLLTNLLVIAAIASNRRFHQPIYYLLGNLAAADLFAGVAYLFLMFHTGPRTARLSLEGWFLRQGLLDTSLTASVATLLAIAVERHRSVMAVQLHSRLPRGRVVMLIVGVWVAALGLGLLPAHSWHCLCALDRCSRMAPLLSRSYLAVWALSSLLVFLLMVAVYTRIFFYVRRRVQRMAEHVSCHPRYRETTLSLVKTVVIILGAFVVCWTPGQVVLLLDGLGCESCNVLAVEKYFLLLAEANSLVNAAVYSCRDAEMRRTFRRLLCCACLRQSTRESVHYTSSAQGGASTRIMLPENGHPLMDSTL

Compound | Emax at 10 µM (LPA2 [1]) | Emax (%) LPA3 (LPA3 [2]) | Emax (%) LPA1 (LPA1 [3]) | melting point | other results
O=C(O)COc1ccc(-c2n[nH]cc2Oc2ccc(Cl)cc2Cl)c(O)c1 [Compound 48, {4-[4-(2,4-Dichlorophenoxy)-1H-pyrazol-3-yl]-3-hydroxyphenoxy}acetic Acid] | 35 ± 8% | N.E. | N.E. | – | –
Cc1[nH]nc(-c2ccc(OCCCCC(=O)O)cc2O)c1Oc1ccc(Cl)cc1Cl [Compound 38, 5-{4-[4-(2,4-Dichlorophenoxy)-5-methyl-1H-pyrazol-3-yl]-3-hydroxyphenoxy}pentanoic Acid] | 21 ± 8% | N.E. | N.E. | – | –
Cc1c(Oc2ccc(Cl)cc2Cl)c(-c2ccc(OCC(=O)O)cc2O)nn1C [Compound 47, {4-[4-(2,4-Dichlorophenoxy)-1,5-dimethyl-1H-pyrazol-3-yl]-3-hydroxyphenoxy}acetic Acid] | 73 ± 10% | – | N.E. | – | Emax (LPA3 [2]; read-out: Emax (%) LPA3): 47 ± 7%
O=C(O)COc1ccc(-c2cc[nH]n2)c(O)c1 [Compound 2, [3-Hydroxy-4-(1H-pyrazol-3-yl)phenoxy]acetic Acid] | 7 ± 3% | – | – | 92 to 94 °C | –
Cc1[nH]nc(-c2ccc(OCCC(=O)O)cc2O)c1Oc1ccc(Cl)cc1Cl [Compound 36, 3-{4-[4-(2,4-Dichlorophenoxy)-5-methyl-1H-pyrazol-3-yl]-3-hydroxyphenoxy}propanoic Acid] | 67 ± 7% | N.E. | N.E. | – | –
Cc1[nH]nc(-c2ccc(OCC(=O)O)cc2O)c1Oc1ccc(Cl)cc1 [Compound 11, {4-[4-(4-Chlorophenoxy)-5-methyl-1H-pyrazol-3-yl]-3-hydroxyphenoxy}acetic Acid] | 60 ± 9% | N.E. | N.E. | 121 to 123 °C | –
Cc1[nH]nc(-c2ccc(O)cc2O)c1Oc1ccc(Cl)cc1Cl [Compound 42, 4-[4-(2,4-Dichlorophenoxy)-5-methyl-1H-pyrazol-3-yl]benzene-1,3-diol] | 16 ± 7% | N.E. | N.E. | 206 to 208 °C | –
Cc1[nH]nc(-c2ccc(OCC(N)=O)cc2O)c1Oc1ccc(Cl)cc1Cl [Compound 45, 2-{4-[4-(2,4-Dichlorophenoxy)-5-methyl-1H-pyrazol-3-yl]-3-hydroxyphenoxy}acetamide] | 44 ± 7% | N.E. | N.E. | – | –
Cc1[nH]nc(-c2ccc(OCC(=O)O)cc2)c1Oc1ccc(Cl)cc1Cl [Compound 30, 4-(2,4-Dichlorophenoxy)-3-(4-carboxymethoxyphenyl)-5-methyl-1H-pyrazole] | 11% | – | – | 158 to 160 °C | –
Cc1[nH]nc(-c2ccc(OCc3nnn[nH]3)cc2O)c1Oc1ccc(F)cc1F [Compound 55] | – | N.E. | N.E. | > 210 °C (dec.) | Emax (LPA2 [1]): 77 ± 5%
Cc1[nH]nc(-c2ccc(OCC(=O)O)cc2O)c1Oc1ccc(F)cc1F [Compound 53, {4-[4-(2,4-Difluorophenoxy)-5-methyl-1H-pyrazol-3-yl]-3-hydroxyphenoxy}acetic Acid] | – | N.E. | N.E. | > 210 °C (dec.) | Emax (LPA2 [1]): 65 ± 11%; IC50 (LPA2 [1]): 5.1 µM
COC(=O)COc1ccc(-c2n[nH]c(C)c2Oc2ccc(Cl)cc2Cl)c(O)c1 [Compound 44, Methyl {4-[4-(2,4-dichlorophenoxy)-5-methyl-1H-pyrazol-3-yl]-3-hydroxyphenoxy} Acetate] | 74 ± 7% | N.E. | N.E. | > 210 °C (dec.) | IC50 (LPA2 [1]): 11.6 µM
Cc1[nH]nc(-c2ccc(OCCCC(=O)O)cc2O)c1Oc1ccc(Cl)cc1Cl [Compound 37, 4-{4-[4-(2,4-Dichlorophenoxy)-5-methyl-1H-pyrazol-3-yl]-3-hydroxyphenoxy}butanoic Acid] | 43 ± 12% | N.E. | N.E. | – | –
COc1ccc(-c2n[nH]c(C)c2Oc2ccc(Cl)cc2Cl)c(O)c1 [Compound 43, 2-[4-(2,4-Dichlorophenoxy)-5-methyl-1H-pyrazol-3-yl]-5-methoxyphenol] | 9 ± 5% | N.E. | N.E. | 220 to 222 °C | –
{4-[4-(2,4-Dichlorophenoxy)-3-methyl-1,2-oxazol-3-yl]-3-hydroxyphenoxy}acetic Acid [Compound 49] | – | 71 ± 4% | N.E. | – | Emax (%) LPA2 (LPA2 [1]; maximum blockade of activation induced by 10 μM LPA (18:1) at 10 μM compound): 58 ± 3%
Cc1[nH]nc(-c2ccc(OCC(=O)O)cc2O)c1Oc1cccc(Cl)c1 [Compound 10, {4-[4-(3-Chlorophenoxy)-5-methyl-1H-pyrazol-3-yl]-3-hydroxyphenoxy}acetic Acid] | 45 ± 8% | N.E. | N.E. | > 240 °C (dec.) | –
Cc1[nH]nc(-c2ccc(OCC(=O)O)cc2O)c1Oc1ccc(Cl)c(Cl)c1 [Compound 12, {4-[4-(3,4-Dichlorophenoxy)-5-methyl-1H-pyrazol-3-yl]-3-hydroxyphenoxy}acetic Acid] | 58 ± 3% | N.E. | N.E. | > 240 °C (dec.) | –
Cc1[nH]nc(-c2ccc(OCC(=O)O)cc2O)c1Oc1ccccc1Cl [Compound 1] | 48 ± 9% | N.E. | N.E.^c | – | agonist activity at LPA2 receptor (LPA2 [4]): lack and absence of significant agonist activity
Cc1csc2c(N[C@@H](C)CN3CCN(S(=O)(=O)c4ccc(Cl)c(Cl)c4)CC3)ncnc12 [Compound C35] | – | – | – | – | IC50 (LPA1 [5]): > 50 µM; IC50 (LPA3 [6]): > 50 µM
O=C(O)/C=C/C(=O)Nc1ccc(Oc2cccc(Oc3ccc(NC(=O)/C=C/C(=O)O)cc3)c2)cc1 [Compound H2L5186303] | – | – | – | – | IC50 (LPA1 [5]): 1.23 µM; IC50 (LPA3 [6]): 27.3 µM
Cc1[nH]nc(-c2ccc(OCC(=O)O)cc2O)c1Oc1ccccc1 [Compound 3, [3-Hydroxy-4-(5-methyl-4-phenoxy-1H-pyrazol-3-yl)phenoxy]acetic Acid] | 20 ± 7% | N.E. | N.E. | > 180 °C (dec.) | –

— publication PMC9421655, “Novel Antagonist of the Type 2 Lysophosphatidic Acid Receptor (LPA2), UCM-14216, Ameliorates Spinal Cord Injury in Mice” (Journal of Medicinal Chemistry, 2022)
